Data published in article PMC5951806, “Rapid labelling and covalent inhibition of intracellular native proteins using ligand-directed N-acyl-N-alkyl sulfonamide” (Nature Communications, 2018).
Where “and” joins values, the source holds several entries; their conditions need not be identical. Equal values may be shown once.

Assays:
Experiment in all cases: TMT LC-MSMS of 11-labelled proteins
Assay type in all cases: cell-based
[1] = molecular target: T1, Aldehyde dehydrogenase family 1 member A3 (ALDH1A3) (Homo sapiens, UniProt P47895)
T1 sequence (P47895 1-512): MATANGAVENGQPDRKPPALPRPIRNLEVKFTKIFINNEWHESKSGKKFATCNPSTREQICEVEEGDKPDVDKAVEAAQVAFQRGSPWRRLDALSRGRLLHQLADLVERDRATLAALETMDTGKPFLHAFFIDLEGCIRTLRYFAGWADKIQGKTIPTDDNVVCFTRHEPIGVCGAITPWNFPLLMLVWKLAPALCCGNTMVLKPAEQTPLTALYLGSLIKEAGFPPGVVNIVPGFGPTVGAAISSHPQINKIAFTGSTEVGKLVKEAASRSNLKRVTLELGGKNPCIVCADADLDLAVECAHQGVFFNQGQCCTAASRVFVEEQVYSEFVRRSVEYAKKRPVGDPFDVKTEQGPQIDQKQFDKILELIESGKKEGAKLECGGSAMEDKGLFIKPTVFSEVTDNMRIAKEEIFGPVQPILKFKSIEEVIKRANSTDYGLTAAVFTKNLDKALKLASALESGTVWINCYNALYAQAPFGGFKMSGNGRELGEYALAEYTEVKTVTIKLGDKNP

[2] = molecular target: Heat shock protein HSP 90-beta (HSP90AB1) (Homo sapiens, UniProt P08238)
[3] = molecular target: T2, dehydrogenase/reductase SDR family member 2, mitochondrial (DHRS2) (Homo sapiens, UniProt Q13268)
T2 sequence (Q13268 24-280): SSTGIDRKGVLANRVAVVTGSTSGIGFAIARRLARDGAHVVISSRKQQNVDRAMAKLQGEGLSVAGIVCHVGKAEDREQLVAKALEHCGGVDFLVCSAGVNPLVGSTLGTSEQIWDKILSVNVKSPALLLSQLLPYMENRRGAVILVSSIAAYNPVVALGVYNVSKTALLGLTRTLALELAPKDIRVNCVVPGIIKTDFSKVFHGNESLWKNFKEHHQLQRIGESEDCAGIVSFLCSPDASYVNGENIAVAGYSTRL

[4] = sheet Exp1, SKBR3 cells, 11 0.5 µM 3 h vs DMSO
[5] = sheet Exp1, SKBR3 cells, 11 0.5 µM 3 h vs with PU-H71 10 µM
[6] = sheet Merged, SKBR3 cells, 11 0.5 µM 3 h vs DMSO
[7] = sheet Merged, SKBR3 cells, 11 0.5 µM 3 h vs with PU-H71 10 µM

Sequence of Heat shock protein HSP 90-beta (HSP90AB1) (P08238 whole entry): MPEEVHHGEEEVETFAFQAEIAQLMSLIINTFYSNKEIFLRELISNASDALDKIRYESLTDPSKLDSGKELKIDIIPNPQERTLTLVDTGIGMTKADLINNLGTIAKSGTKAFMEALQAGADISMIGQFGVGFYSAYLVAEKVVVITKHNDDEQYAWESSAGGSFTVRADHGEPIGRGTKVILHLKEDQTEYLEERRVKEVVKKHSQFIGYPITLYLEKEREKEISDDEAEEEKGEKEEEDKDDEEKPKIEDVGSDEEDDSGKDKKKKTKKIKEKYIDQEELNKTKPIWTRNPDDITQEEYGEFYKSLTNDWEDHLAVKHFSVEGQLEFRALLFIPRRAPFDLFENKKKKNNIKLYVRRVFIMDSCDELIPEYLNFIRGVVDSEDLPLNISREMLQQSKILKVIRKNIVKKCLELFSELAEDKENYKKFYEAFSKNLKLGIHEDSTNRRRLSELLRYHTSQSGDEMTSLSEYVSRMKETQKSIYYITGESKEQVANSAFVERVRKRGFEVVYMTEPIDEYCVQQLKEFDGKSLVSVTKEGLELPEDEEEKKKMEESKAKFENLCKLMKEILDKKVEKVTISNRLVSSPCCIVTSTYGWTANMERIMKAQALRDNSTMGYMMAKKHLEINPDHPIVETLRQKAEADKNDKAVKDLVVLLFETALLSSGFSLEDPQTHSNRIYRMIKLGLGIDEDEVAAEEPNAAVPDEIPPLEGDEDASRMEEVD

For CC(=O)Oc1ccc2c(c1)Oc1cc(OC(C)=O)ccc1C21OC(=O)c2cc(C(=O)NCCOCCOCCNC(=O)CCCC(=O)N(CC#N)S(=O)(=O)c3ccc(C(=O)NCCCn4c(Sc5cc6c(cc5I)OCO6)nc5c(N)ncnc54)cc3)ccc21 [compound 11], the “Abundance Ratio: (11) / (11 with PU-H71)” value ([1]; Exp3, ALDH1A3) was 0.892, the “Abundance Ratio: (11) / (DMSO)” value ([1]; Exp3, ALDH1A3) was 4.34 and the “Abundances (Grouped): 11” value ([1]; Exp3, ALDH1A3) was 42.1. The “Abundances (Grouped): 11 with PU-H71” value ([1]; Exp3, ALDH1A3, with PU-H71) was 47.2, the “Abundance Ratio: (11) / (DMSO)” value [1, 4] was 5.076 and the “Abundance Ratio: (11) / (11 with PU-H71)” value [1, 5] was 0.894. For the same compound, the “Abundance Ratio: (11) / (DMSO)” value [1, 6] was 4.694, the “Abundance Ratio: (11) / (11 with PU-H71)” value [1, 7] was 0.893 and the “Abundance Ratio: (11) / (11 with PU-H71)” value ([2]; Exp3, HSP90AB1) was 3.363. The “Abundance Ratio: (11) / (DMSO)” value ([2]; Exp3, HSP90AB1) was 10.531, the “Abundances (Grouped): 11” value ([2]; Exp3, HSP90AB1) was 3418.4 and the “Abundances (Grouped): 11 with PU-H71” value ([2]; Exp3, HSP90AB1) was 1016.5. For the same compound, the “Abundance Ratio: (11) / (DMSO)” value [2, 4] was 8.2, the “Abundance Ratio: (11) / (11 with PU-H71)” value [2, 5] was 3.253 and the “Abundance Ratio: (11) / (11 with PU-H71)” value ([2]; sheet Exp2, HSP90AB1) was 3.262. The “Abundance Ratio: (11) / (DMSO)” value ([2]; sheet Exp2, HSP90AB1) was 9.509, the “Abundances (Grouped): 11” value ([2]; sheet Exp2, HSP90AB1) was 4464.4 and the “Abundances (Grouped): 11 with PU-H71” value ([2]; sheet Exp2, HSP90AB1) was 1368.7. For the same compound, the “Abundance Ratio: (11) / (DMSO)” value [2, 6] was 9.3 and 9.344, the “Abundance Ratio: (11) / (11 with PU-H71)” value [2, 7] was 3.227 and the “Abundance Ratio: (11) / (11 with PU-H71)” value ([3]; Exp3, DHRS2) was 0.644. The “Abundance Ratio: (11) / (DMSO)” value ([3]; Exp3, DHRS2) was 2.859, the “Abundances (Grouped): 11” value ([3]; Exp3, DHRS2) was 223.6 and the “Abundances (Grouped): 11 with PU-H71” value ([3]; Exp3, DHRS2) was 347.1. For the same compound, the “Abundance Ratio: (11) / (DMSO)” value [3, 4] was 3.162, the “Abundance Ratio: (11) / (11 with PU-H71)” value [3, 5] was 0.783 and the “Abundance Ratio: (11) / (11 with PU-H71)” value ([3]; sheet Exp2, DHRS2) was 0.6. The “Abundance Ratio: (11) / (DMSO)” value ([3]; sheet Exp2, DHRS2) was 3.132, the “Abundances (Grouped): 11” value ([3]; sheet Exp2, DHRS2) was 156.3 and the “Abundances (Grouped): 11 with PU-H71” value ([3]; sheet Exp2, DHRS2) was 260.6. The “Abundance Ratio: (11) / (DMSO)” value [3, 6] was 2.859 and the “Abundance Ratio: (11) / (11 with PU-H71)” value [3, 7] was 0.644.
